The subject of data set [1] is Streptococcus pyogenes 930. As to the kind of experiment: In vitro antibacterial activity (MIC), agar dilution. The note with it: BHI agar, 35°-37° C., 20 to 24 hours; unit assumed. It is filed as cell-based. Here is the method:
(§1) Representative compounds of the present invention were assayed in vitro for antibacterial activity as follows: Twelve petri dishes containing successive aqueous dilutions of the test compound mixed with 10 mL of sterilized Brain Heart Infusion (BHI) agar (Difco 0418-01-5) were prepared. Each plate was inoculated with 1:100 (or 1:10 for slow-growing strains, such as Micrococcus and Streptococcus) dilutions of up to 32 different microorganisms, using a Steers replicator block. […] In addition, a control plate, using BHI agar containing no test compound, was prepared and incubated at the beginning and end of each test.
(§2) An additional plate containing a compound having known susceptibility patterns for the organisms being tested and belonging to the same antibiotic class as the test compound was also prepared and incubated as a further control, as well as to provide test-to-test comparability.
(§3) After incubation, each plate was visually inspected. The minimum inhibitory concentration (MIC) was defined as the lowest concentration of drug yielding no growth, a slight haze, or sparsely isolated colonies on the inoculum spot as compared to the growth control.

Data set [2] has as its system Streptococcus Pheumoniae 5649. The description is as above. Type of data set: cell-based. The note with it: BHI agar, 35°-37° C., 20 to 24 hours; unit assumed. Here is the method: as §1, §2, §3
A further data set concerns Escherichia coli SS. The data set is described as above. It is filed as cell-based. Conditions: BHI agar, 35°-37° C., 20 to 24 hours; unit assumed. Here is the method:
as §1, §2, §3

Data set [3] deals with Mycobacterium smegmatis ATCC 114. The data set is described as above. Type of data set: cell-based. Conditions: BHI agar, 35°-37° C., 20 to 24 hours; unit assumed. How it is done: as §1, §2, §3
In another data set the test system is Candida albicans CCH 442. The data set is described as above. The note with it: BHI agar, 35°-37° C., 20 to 24 hours; unit assumed. It is filed as cell-based. Here is the method: as §1, §2, §3
The subject of another data set is Escherichia coli JUHL. The description is as above. It is filed as cell-based. Conditions: unit assumed. Here is the method:
as §1, §2, §3

A further data set has as its system Escherichia coli DC-2. The data set is described as above. It is filed as cell-based. Conditions: BHI agar, 35°-37° C., 20 to 24 hours; unit assumed. Here is the method:
as §1, §2, §3

Data set [4] has as its system Staphylococcus aureus A-5278. The data set is described as above. The note with it: BHI agar, 35°-37° C., 20 to 24 hours; unit assumed. It is filed as cell-based. How it is done: as §1, §2, §3
In data set [5] the test system is Nocardia Asteroides ATCC9970. The description is as above. It is filed as cell-based. The note with it: BHI agar, 35°-37° C., 20 to 24 hours; unit assumed. How it is done:
as §1, §2, §3

For data set [6], the system named is Staphylococcus aureus 1775. Described as above. Type of data set: cell-based. The note with it: BHI agar, 35°-37° C., 20 to 24 hours; unit assumed. Here is the method: as §1, §2, §3
The subject of data set [7] is Streptococcus Pheumoniae GYR 1171. The data set is described as above. It is filed as cell-based. The note with it: BHI agar, 35°-37° C., 20 to 24 hours; unit assumed. Here is the method:
as §1, §2, §3

Data set [8] deals with Staphylococcus aureus A5177. It is filed as cell-based. Conditions: BHI agar, 35°-37° C., 20 to 24 hours; unit assumed. Here is the method: as §1, §2, §3
Data set [9] relates to Staphylococcus aureus NCTC10649M. Type of data set: cell-based. The note with it: BHI agar, 35°-37° C., 20 to 24 hours; unit assumed. Here is the method: as §1, §2, §3
Data set [10] concerns Streptococcus agalactiae CMX 508. Type of data set: cell-based. The note with it: BHI agar, 35°-37° C., 20 to 24 hours; unit assumed. Here is the method:
as §1, §2, §3

Data set [11] has as its system Micrococcus luteus ATCC 4698. Type of data set: cell-based. Conditions: BHI agar, 35°-37° C., 20 to 24 hours; unit assumed. Here is the method: as §1, §2, §3
The subject of data set [12] is Staphylococcus aureus ATCC 6538P. Type of data set: cell-based. Conditions: BHI agar, 35°-37° C., 20 to 24 hours; unit assumed. Here is the method:
as §1, §2, §3

The test system of data set [13] is Staphylococcus aureus CMX 553. It is filed as cell-based. The note with it: BHI agar, 35°-37° C., 20 to 24 hours; unit assumed. How it is done:
as §1, §2, §3

For data set [14], the system named is Staphylococcus aureus CMX 642A. It is filed as cell-based. The note with it: BHI agar, 35°-37° C., 20 to 24 hours; unit assumed. Here is the method: as §1, §2, §3
Data set [15] deals with Micrococcus luteus ATCC 9341. It is filed as cell-based. The note with it: BHI agar, 35°-37° C., 20 to 24 hours; unit assumed. Here is the method: as §1, §2, §3
For data set [16], the system named is Haemophilis Influenzae DILL AMP R. Type of data set: cell-based. The note with it: BHI agar, 35°-37° C., 20 to 24 hours; unit assumed. Here is the method: as §1, §2, §3
The test system of data set [17] is Streptococcus pyogenes PIU 2548. It is filed as cell-based. The note with it: BHI agar, 35°-37° C., 20 to 24 hours; unit assumed. How it is done: as §1, §2, §3
In data set [18] the test system is Staphylococcus epidermidis 3519. It is filed as cell-based. The note with it: BHI agar, 35°-37° C., 20 to 24 hours; unit assumed. How it is done: as §1, §2, §3
Data set [19] deals with Streptococcus bovis A-5169. It is filed as cell-based. The note with it: BHI agar, 35°-37° C., 20 to 24 hours; unit assumed. How it is done: as §1, §2, §3
The subject of data set [20] is Streptococcus pyogenes EES61. Type of data set: cell-based. The note with it: BHI agar, 35°-37° C., 20 to 24 hours; unit assumed. Here is the method: as §1, §2, §3
The subject of data set [21] is Enterococcus faecium ATCC 8043. It is filed as cell-based. Conditions: BHI agar, 35°-37° C., 20 to 24 hours; unit assumed. How it is done:
as §1, §2, §3

The test system of another data set is Gram-negative bacteria. The note with it: background statement; cited from earlier work.
In data set [22] the test system is gram-positive bacteria, mycoplasmas. Conditions: background statement, U.S. Pat. No. 4,331,803; cited from earlier work.
The conditions of data set [23]: background statement; cited from earlier work.
[24] abbreviates: BHI agar, 35°-37° C., 20 to 24 hours.

≈ marks a conversion by molar mass, not a printed value. Where only a bound is given, the exact number is not on record here.

In the case of `CCOP1O[C@@H]2[C@@H](C)C(=O)[C@H](C)C[C@@](C)(OC)[C@H](O[C@@H]3O[C@H](C)C[C@H](N(C)C)[C@H]3O)[C@@H](C)C(=O)[C@@H](C)C(=O)O[C@H](CC)[C@@]2(C)O1` (some centres unmarked) [Example 5], the MIC in [1] is over 100 µg/mL; in data set [2], 16 µg/mL (≈ 24.2 µM); against Escherichia coli SS, 50 µg/mL (≈ 75.6 µM); in data set [3] it was 100 µg/mL (≈ 151 µM); with Candida albicans CCH 442, over 100 µg/mL; in the data set with Escherichia coli JUHL (setting [24]), over 100 µg/mL. The MIC was over 100 µg/mL against Escherichia coli DC-2; over 100 µg/mL in [4]; 12.5 µg/mL (≈ 18.9 µM) in data set [5]; over 100 µg/mL in data set [6]; 4 µg/mL (≈ 6.04 µM) in data set [7]; 25 µg/mL (≈ 37.8 µM) in data set [8]. The MIC in data set [9] was found to be 25 µg/mL (≈ 37.8 µM); in [10], 12.5 µg/mL (≈ 18.9 µM); in data set [11], 50 µg/mL (≈ 75.6 µM); in data set [12], 25 µg/mL (≈ 37.8 µM); in data set [13], 50 µg/mL (≈ 75.6 µM); in [14] it was 50 µg/mL (≈ 75.6 µM). Also, the MIC is 25 µg/mL (≈ 37.8 µM) in data set [15]; over 128 µg/mL in [16]; 12.5 µg/mL (≈ 18.9 µM) in data set [17]; 25 µg/mL (≈ 37.8 µM) in [18]; 12.5 µg/mL (≈ 18.9 µM) in data set [19]; 12.5 µg/mL (≈ 18.9 µM) in data set [20]. In addition, the MIC in [21] came to 25 µg/mL (≈ 37.8 µM).

Consider `CC[C@H]1OC(=O)[C@H](C)C(=O)[C@H](C)[C@@H](O[C@@H]2O[C@H](C)C[C@H](N(C)C)[C@H]2O)[C@](C)(OC)C[C@@H](C)C(=O)[C@H](C)[C@H]2OP(OC)O[C@@]21C` (some centres unmarked) [Example 3], for which the MIC in data set [1] was over 100 µg/mL; in data set [2], 16 µg/mL (≈ 24.7 µM); against Escherichia coli SS, 50 µg/mL (≈ 77.2 µM); in data set [3] it was 100 µg/mL (≈ 154 µM); against Candida albicans CCH 442, over 100 µg/mL; against Escherichia coli JUHL (setting [24]) it was over 100 µg/mL. The MIC with Escherichia coli DC-2 was over 100 µg/mL; in data set [4], over 100 µg/mL; in data set [5], 12.5 µg/mL (≈ 19.3 µM); in [6], over 100 µg/mL; in data set [7], 8 µg/mL (≈ 12.4 µM); in data set [8], 25 µg/mL (≈ 38.6 µM). The MIC in [9] is 25 µg/mL (≈ 38.6 µM); in [10], 12.5 µg/mL (≈ 19.3 µM); in data set [11], 25 µg/mL (≈ 38.6 µM); in data set [12], 25 µg/mL (≈ 38.6 µM); in [13], 50 µg/mL (≈ 77.2 µM); in data set [14], 25 µg/mL (≈ 38.6 µM). Further, the MIC in data set [15] was 25 µg/mL (≈ 38.6 µM); in data set [16] it was over 128 µg/mL; in [17], 12.5 µg/mL (≈ 19.3 µM); in data set [18], 25 µg/mL (≈ 38.6 µM); in [19], 12.5 µg/mL (≈ 19.3 µM); in [20] it was 12.5 µg/mL (≈ 19.3 µM). In addition, the MIC in [21] worked out at 25 µg/mL (≈ 38.6 µM).

For `CC[C@H]1OC(=O)[C@H](C)[C@@H](O[C@H]2C[C@@](C)(OC)[C@@H](O)[C@H](C)O2)[C@H](C)[C@@H](O[C@@H]2O[C@H](C)C[C@H](N(C)C)[C@H]2O)[C@](C)(OC)C[C@@H](C)C(=O)[C@H](C)[C@@H](O)[C@]1(C)O` [6-O-methyl erythromycin A], in the data set on Gram-negative bacteria, the “activity against Gram-negative bacteria” value is listed as “only weak antimicrobial activity”. For the same molecule, in [22], the “antibacterial activity against many gram-positive bacteria, mycoplasmas, etc.” value is “desirable antibacterial activity”. Besides, in [23], the acid stability entry is listed as “poor acid stability”.

In the case of `CC[C@H]1OC(=O)[C@H](C)[C@@H](O[C@H]2C[C@@](C)(OC)[C@@H](O)[C@H](C)O2)[C@H](C)[C@@H](O[C@@H]2O[C@H](C)C[C@H](N(C)C)[C@H]2O)[C@](C)(O)C[C@@H](C)C(=O)[C@H](C)[C@@H](O)[C@]1(C)O` [Ery. A, Erythromycin A], the MIC in the data set on Escherichia coli JUHL was over 100 µg/mL; in [16], 4 µg/mL (≈ 5.45 µM). Moreover, in the data set on Gram-negative bacteria, the “activity against Gram-negative bacteria” value is on record as “only weak activity”.

The record behind these values is US5780604A, “11,12-cyclic phosphite or phosphate derivatives of erythromycin and related macrolides” (Abbott Laboratories, priority 1997, dated 1998).
